The structures appear in SMILES notation. Bounds are passed on as bounds.

The values below come from patent USRE47689E1, “Compounds for treating spinal muscular atrophy” (PTC Therapeutics, Inc., priority 2011, dated 2019).

Data set [1] deals with SMN2 minigene (full length SMN2 minigene mRNA containing SMN2 exon 7). The experiment in a line: SMN2 minigene mRNA splicing RT-qPCR assay in cultured cells. Type of data set: cell-based, human. The note with it: Homo sapiens, HEK293-H; HEK293H cells stably transfected with SMN2-A minigene; 24 hours; 7-point concentration curve; 1.5-fold relative to vehicle-treated cells; read-out: EC1.5x for production of full length SMN2 mRNA. The method in brief:
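Lysates → one-step RT-qPCR, minigene-specific primers (0.4 μM final) + GAPDH multiplex, 40 cycles. FL/GAPDH vs DMSO; EC1.5x, star-binned.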
(Quantitative PCR measures a nucleic acid by following its amplification.)

The subject of a further data set is Smn protein. Nature of the data set: Smn protein assay in cultured cells (SMN HTRF). Type of data set: cell-based, human. To be noted: 48 hours; for EC1.5x (concentration giving 1.5-fold Smn protein increase): SMA Type 1 patient fibroblast cells (GM03813), 7-point concentration curve, SMN HTRF, concentration producing 1.5 times Smn protein vs DMSO vehicle control, read-out: EC1.5x for Smn protein expression; for maximum fold (Fold) increase of Smn protein: SMA patient fibroblast cells, 7-point concentration data, fold increase relative to vehicle control (SMN HTRF). The gist of the method:
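Smn in SMA fibroblast lysates, measured by anti-SMN HTRF after 48 h compound exposure; EC1.5x from fold change over vehicle.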
(In general: TR-FRET usually uses a lanthanide donor and a delayed reading to cut background.)

`Cc1nccn2cc(-c3cc4ccc(N5CCNCC5)cc4oc3=O)cc12` [Compound 555, 3-(1-methylpyrrolo[1,2-a]pyrazin-7-yl)-7-(piperazin-1-yl)-2H-chromen-2-one] came in with a melting point of 264 to 266 °C. Moreover, the EC (1.5-fold) in data set [1] was 0.1 to 0.3 µM. In the data set on Smn protein, the EC1.5x (concentration giving 1.5-fold Smn protein increase) was less than 300 nM; the “maximum fold (Fold) increase of Smn protein” value (shortened to “maximum fold (Fold) increase”) was “**** (fold increase between >1.5 and ≤1.65)”.

With `CCN1CCN(c2ccc3cc(-c4cc5c(C)nc(C)cn5c4)c(=O)oc3c2)C[C@@H]1C` [Compound 694, 3-(1,3-dimethylpyrrolo[1,2-a]pyrazin-7-yl)-7-[(3S)-4-ethyl-3-methylpiperazin-1-yl]-2H-chromen-2-one], the melting point lay in the range of 173 to 175 °C. Moreover, the EC (1.5-fold) in data set [1] was less than 0.1 µM. In addition, in the data set with Smn protein, the EC1.5x (concentration giving 1.5-fold Smn protein increase) is less than 300 nM; the “maximum fold (Fold) increase” value is “**** (fold increase between >1.5 and ≤1.65)”.

The compound `C[C@@H]1CN(c2ccc3cc(-c4nc(C(F)(F)F)cs4)c(=O)oc3c2)C[C@H](C)N1` [Compound 236, 7-[(3R,5S)-3,5-dimethylpiperazin-1-yl]-3-[4-(trifluoromethyl)-1,3-thiazol-2-yl]-2H-chromen-2-one] registered a melting point of 215 to 219 °C. In addition, the EC (1.5-fold) in data set [1] fell in the range of 1 to 3 µM. Further, in the data set on Smn protein, the “maximum fold (Fold) increase” value was “* (maximum fold increase of ≤1.2)”.

In turn, `Cc1cn2cc(-c3cc4ccc(C5CCNCC5)cc4oc3=O)cnc2n1` [Compound 834, 3-(2-methylimidazo[1,2-a]pyrimidin-6-yl)-7-(piperidin-4-yl)-2H-chromen-2-one] registered a melting point of 280 to 281 °C. For the same compound, the EC (1.5-fold) in data set [1] is less than 0.1 µM. In the data set on Smn protein, the EC1.5x (concentration giving 1.5-fold Smn protein increase) was less than 300 nM and the “maximum fold (Fold) increase” value is given as “***** (fold increase >1.65)”.

In turn, `COc1ccc(-c2cc3ccc(N4CCNCC4)cc3oc2=O)cc1C` [Compound 541, 3-(4-methoxy-3-methylphenyl)-7-(piperazin-1-yl)-2H-chromen-2-one] showed a melting point of 171 to 173 °C. Also, the EC (1.5-fold) in data set [1] was 1 to 3 µM. Also, the “maximum fold (Fold) increase” value in the data set with Smn protein is on record as “* (maximum fold increase of ≤1.2)”.

In turn, `Cc1csc2nc(-c3cc4ccc(N5C[C@@H](C)N[C@@H](C)C5)cc4oc3=O)cn12` [Compound 182, 7-[(3R,5S)-3,5-dimethylpiperazin-1-yl]-3-(3-methylimidazo[2,1-b][1,3]thiazol-6-yl)-2H-chromen-2-one] displayed a melting point of 211 to 215 °C. Besides, the EC (1.5-fold) in data set [1] lay in the range of 1 to 3 µM. In addition, in the data set with Smn protein, the “maximum fold (Fold) increase” value is “** (fold increase between >1.2 and ≤1.35)”.

`CN1CCN(c2cc(F)c3cc(-c4nc5ccccc5[nH]4)c(=O)oc3c2)CC1` [Compound 370, 3-(1H-benzimidazol-2-yl)-5-fluoro-7-(4-methylpiperazin-1-yl)-2H-chromen-2-one] displayed a melting point of 281 to 284 °C. Also, the EC (1.5-fold) in data set [1] lay in the range of 0.3 to 1 µM. For the same compound, in the data set on Smn protein, the “maximum fold (Fold) increase” value is “* (maximum fold increase of ≤1.2)”.

In turn, `C[C@@H]1CN(c2ccc3cc(-c4ccc5c(c4)OCCO5)c(=O)oc3c2)C[C@H](C)N1` [Compound 514, 3-(2,3-dihydro-1,4-benzodioxin-6-yl)-7-[(3R,5S)-3,5-dimethylpiperazin-1-yl]-2H-chromen-2-one] came in with a melting point of 138 to 140 °C. Besides, the EC (1.5-fold) in data set [1] was 3 to 30 µM. The “maximum fold (Fold) increase” value in the data set with Smn protein was “* (maximum fold increase of ≤1.2)”.

In turn, `O=c1oc2cc(CNC(CO)CO)ccc2cc1-c1nc2ccccc2s1` [Compound 99, 3-(1,3-benzothiazol-2-yl)-7-{[(1,3-dihydroxypropan-2-yl)amino]methyl}-2H-chromen-2-one] yielded a melting point of 194 to 197 °C. Also, in data set [1], the EC (1.5-fold) fell in the range of 3 to 30 µM. Also, in the data set on Smn protein, the “maximum fold (Fold) increase” value was “* (maximum fold increase of ≤1.2)”.

For orientation: melting point means the temperature, or range, at which the solid turns liquid.
